Test results reported in patent US20230265151A1, “GIP/GLP1 CO-AGONIST COMPOUNDS” (priority 2020, published 2023).
Read-outs that look alike come from different tables or passages of the source. Where a SMILES comes first, the peptide text is derived from it. Side-chain parts run from the residue outwards. [ ]: non-standard residue; d: D form. The star is where a group is joined. αMePhe(2-F) = C[C@](N)(Cc1ccccc1F)C(=O)O; C14 diacid = O=C(O)CCCCCCCCCCCCC(=O)*; αMeY = C[C@](N)(Cc1ccc(O)cc1)C(=O)O; 4Pal = N[C@@H](Cc1ccncc1)C(=O)O; αMeL = CC(C)C[C@](C)(N)C(=O)O; Orn = NCCC[C@H](N)C(=O)O; AEEA = NCCOCCOCC(=O)O; Aib = CC(C)(N)C(=O)O

Columns and labels:
Assay type in all cases: cell-based
[1] = molecular target: hGLP-1R (Homo sapiens, UniProt P43220); experiment: Functional cAMP formation (HTRF) in HEK-293 clonal cells expressing hGLP-1R, 0.1% bovine casein, without or with 1.0% human serum albumin; set-up: expressed in transfected cells; conditions: for EC50: geometric mean, read-out: hGLP-1R EC50, nM (SEM, n); for Emax: read-out: hGLP-1R Emax, % ± SEM
In short: (§1)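 Cells were stimulated with peptide for 30 min at 37° C, then intracellular cAMP was measured by competitive HTRF (665/620 nm ratio) and converted to nM using a cAMP standard curve. Relative EC50 and Emax came from four-parameter logistic fits of percent maximal response against peptide concentration.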

[2] = molecular target: T1, hGIPR (Homo sapiens, UniProt P48546); experiment: Functional cAMP formation (HTRF) in HEK-293 clonal cells expressing hGIPR, 0.1% bovine casein, without or with 1.0% human serum albumin; conditions: for Emax: read-out: hGIPR Emax, % ± SEM; for EC50: geometric mean, read-out: hGIPR EC50, nM (SEM, n)
T1 construct: expressed in transfected cells
T1 sequence (P48546 22-466): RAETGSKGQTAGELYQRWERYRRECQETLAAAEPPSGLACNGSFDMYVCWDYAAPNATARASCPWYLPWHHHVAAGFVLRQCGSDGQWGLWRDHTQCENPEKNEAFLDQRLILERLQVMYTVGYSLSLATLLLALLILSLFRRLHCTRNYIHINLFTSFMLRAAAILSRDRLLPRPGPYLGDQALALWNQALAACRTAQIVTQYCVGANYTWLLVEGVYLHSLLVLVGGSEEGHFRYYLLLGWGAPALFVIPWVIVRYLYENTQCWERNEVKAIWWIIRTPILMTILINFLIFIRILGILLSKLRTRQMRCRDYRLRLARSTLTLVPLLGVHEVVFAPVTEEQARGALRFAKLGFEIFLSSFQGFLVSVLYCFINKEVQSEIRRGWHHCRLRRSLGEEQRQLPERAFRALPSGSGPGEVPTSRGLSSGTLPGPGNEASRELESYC
In short: as §1

[3] = molecular target: T2, hGCGR (Homo sapiens, UniProt P47871); experiment: Functional cAMP formation (HTRF) in HEK-293 clonal cells expressing hGCGR, 0.1% bovine casein, without or with 1.0% human serum albumin; conditions: geometric mean, read-out: hGCGR EC50, nM (SEM, n)
T2 construct: expressed in transfected cells
In short: as §1

[4] = 0.1% bovine casein and 1.0% human serum albumin, 37° C.
[5] = HEK293, 0.1% bovine casein and 1.0% human serum albumin, 37° C., percent of maximal response to GLP-1(7-36)NH2
[6] = HEK293, percent of maximal response to GLP-1(7-36)NH2, 37° C., 0.1% bovine casein, arithmetic mean
[7] = HEK293, 0.1% bovine casein and 1.0% human serum albumin, 37° C., percent of maximal response to GIP(1-42)NH2
[8] = HEK293, percent of maximal response to GIP(1-42)NH2, 37° C., 0.1% bovine casein, arithmetic mean
[9] = cAMP, incubated at 37° C., 0.1% bovine casein (no human serum albumin)

T2 sequence (P47871 26-477): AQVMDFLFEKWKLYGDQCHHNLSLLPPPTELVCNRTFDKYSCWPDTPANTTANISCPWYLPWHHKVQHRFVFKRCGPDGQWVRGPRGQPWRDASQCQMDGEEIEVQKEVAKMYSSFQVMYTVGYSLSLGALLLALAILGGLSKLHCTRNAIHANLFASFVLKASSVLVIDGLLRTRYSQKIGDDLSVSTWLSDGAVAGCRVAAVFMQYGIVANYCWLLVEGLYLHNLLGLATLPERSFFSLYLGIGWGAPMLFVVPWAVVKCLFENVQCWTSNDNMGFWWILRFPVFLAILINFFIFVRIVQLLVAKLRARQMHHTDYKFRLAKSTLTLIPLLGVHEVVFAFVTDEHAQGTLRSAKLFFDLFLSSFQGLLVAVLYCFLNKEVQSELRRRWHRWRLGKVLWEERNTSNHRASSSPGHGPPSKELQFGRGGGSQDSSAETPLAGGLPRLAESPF
Sequence of hGLP-1R (P43220 24-463): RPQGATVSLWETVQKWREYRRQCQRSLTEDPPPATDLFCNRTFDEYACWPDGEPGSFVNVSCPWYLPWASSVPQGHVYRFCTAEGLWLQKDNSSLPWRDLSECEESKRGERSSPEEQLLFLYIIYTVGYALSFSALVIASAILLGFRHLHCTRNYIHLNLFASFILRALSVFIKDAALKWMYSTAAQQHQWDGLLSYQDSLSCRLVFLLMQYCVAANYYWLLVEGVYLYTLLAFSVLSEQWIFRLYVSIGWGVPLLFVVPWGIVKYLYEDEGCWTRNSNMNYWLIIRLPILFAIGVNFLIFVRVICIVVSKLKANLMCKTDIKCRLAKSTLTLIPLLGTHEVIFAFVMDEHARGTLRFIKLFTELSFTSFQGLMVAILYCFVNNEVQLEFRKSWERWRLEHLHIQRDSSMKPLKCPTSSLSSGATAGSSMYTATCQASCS

CC[C@H](C)[C@H](NC(=O)[C@H](CC(C)C)NC(=O)[C@](C)(Cc1ccc(O)cc1)NC(=O)[C@@H](CCC(=O)O)NC(=O)[C@@H](NC(=O)[C@H](Cc1ccccc1)NC(=O)[C@H](CCC(=O)O)NC(=O)C(C)(C)NC(=O)[C@H](CCC(N)=O)NC(=O)[C@H](C)NC(=O)[C@H](CCCCNC(=O)COCCOCCNC(=O)COCCOCCNC(=O)CCCCCCCCCCCCC(=O)O)NC(=O)[C@H](CCCN)NC(=O)[C@H](CC(=O)O)NC(=O)[C@H](CC(C)C)NC(=O)[C@](C)(CC(C)C)NC(=O)[C@@H](NC(=O)[C@H](CO)NC(=O)[C@H](Cc1ccncc1)NC(=O)[C@H](CC(=O)O)NC(=O)[C@H](CO)NC(=O)[C@@H](NC(=O)[C@](C)(Cc1ccccc1F)NC(=O)[C@@H](NC(=O)CNC(=O)[C@H](CCC(=O)O)NC(=O)C(C)(C)NC(=O)[C@@H](N)Cc1ccc(O)cc1)[C@@H](C)O)[C@@H](C)O)[C@@H](C)CC)[C@@H](C)CC)C(=O)N[C@@H](CCC(=O)O)C(=O)NCC(=O)NCC(=O)N1CCC[C@H]1C(=O)N[C@@H](CO)C(=O)N[C@@H](CO)C(=O)NCC(=O)N[C@@H](C)C(=O)N1CCC[C@H]1C(=O)N1CCC[C@H]1C(=O)N1CCC[C@H]1C(=O)N[C@@H](CO)C(=O)N[C@@H](CCCCNC(=O)COCCOCCNC(=O)COCCOCCNC(=O)CCCCCCCCCCCCC(=O)O)C(N)=O [Example 221]
EC50 [1, 4]: 17.9 nM | Emax [1, 5]: 92.3% | Emax [1, 6]: 83% | Emax [2, 7]: 67.4% | Emax [2, 8]: 81.8% | EC50 [2, 9]: 0.0279 nM | EC50 [3, 4]: > 9950 nM | EC50 [3, 9]: > 9950 nM

CC[C@H](C)[C@H](NC(=O)[C@H](CCCN)NC(=O)[C@H](CC(=O)O)NC(=O)[C@H](CC(C)C)NC(=O)[C@](C)(CC(C)C)NC(=O)[C@@H](NC(=O)[C@H](CO)NC(=O)[C@H](Cc1ccncc1)NC(=O)[C@H](CC(=O)O)NC(=O)[C@H](CO)NC(=O)[C@@H](NC(=O)[C@](C)(Cc1ccccc1F)NC(=O)[C@@H](NC(=O)CNC(=O)[C@H](CCC(=O)O)NC(=O)C(C)(C)NC(=O)[C@@H](N)Cc1ccc(O)cc1)[C@@H](C)O)[C@@H](C)O)[C@@H](C)CC)C(=O)N[C@@H](C)C(=O)N[C@@H](CCC(N)=O)C(=O)NC(C)(C)C(=O)N[C@@H](CCCCNC(=O)COCCOCCNC(=O)COCCOCCNC(=O)CCCCCCCCCCCCC(=O)O)C(=O)N[C@@H](Cc1ccccc1)C(=O)N[C@H](C(=O)N[C@H](CCC(=O)O)C(=O)N[C@@](C)(Cc1ccc(O)cc1)C(=O)N[C@@H](CC(C)C)C(=O)N[C@H](C(=O)N[C@@H](CCCCNC(=O)COCCOCCNC(=O)COCCOCCNC(=O)CCCCCCCCCCCCC(=O)O)C(=O)NCC(=O)NCC(=O)N1CCC[C@H]1C(=O)N[C@@H](CO)C(=O)N[C@@H](CO)C(=O)NCC(=O)N[C@@H](C)C(=O)N1CCC[C@H]1C(=O)N1CCC[C@H]1C(=O)N1CCC[C@H]1C(=O)N[C@@H](CO)C(N)=O)[C@@H](C)CC)[C@@H](C)CC [Example 222]
Emax [1, 5]: 117% | Emax [1, 6]: 91.6% | EC50 [1, 9]: 0.518 nM | Emax [2, 7]: 77.9% | Emax [2, 8]: 98.7% | EC50 [2, 9]: 0.0195 nM | EC50 [3, 4]: > 9950 nM | EC50 [3, 9]: > 9950 nM

CC[C@H](C)[C@H](NC(=O)[C@H](CCCN)NC(=O)[C@H](CC(=O)O)NC(=O)[C@H](CC(C)C)NC(=O)[C@](C)(CC(C)C)NC(=O)[C@@H](NC(=O)[C@H](CO)NC(=O)[C@H](Cc1ccncc1)NC(=O)[C@H](CC(=O)O)NC(=O)[C@H](CO)NC(=O)[C@@H](NC(=O)[C@](C)(Cc1ccccc1F)NC(=O)[C@@H](NC(=O)CNC(=O)[C@H](CCC(=O)O)NC(=O)C(C)(C)NC(=O)[C@@H](N)Cc1ccc(O)cc1)[C@@H](C)O)[C@@H](C)O)[C@@H](C)CC)C(=O)N[C@@H](C)C(=O)N[C@@H](CCC(N)=O)C(=O)NC(C)(C)C(=O)N[C@@H](CCC(=O)O)C(=O)N[C@@H](Cc1ccccc1)C(=O)N[C@H](C(=O)N[C@H](CCC(=O)O)C(=O)N[C@@](C)(Cc1ccc(O)cc1)C(=O)N[C@@H](CC(C)C)C(=O)N[C@H](C(=O)N[C@@H](CCCCNC(=O)COCCOCCNC(=O)COCCOCCNC(=O)CCCCCCCCCCCCC(=O)O)C(=O)NCC(=O)NCC(=O)N1CCC[C@H]1C(=O)N[C@@H](CO)C(=O)N[C@@H](CO)C(=O)NCC(=O)N[C@@H](C)C(=O)N1CCC[C@H]1C(=O)N1CCC[C@H]1C(=O)N1CCC[C@H]1C(=O)N[C@@H](CO)C(=O)N[C@@H](CCCCNC(=O)COCCOCCNC(=O)COCCOCCNC(=O)CCCCCCCCCCCCC(=O)O)C(N)=O)[C@@H](C)CC)[C@@H](C)CC [Example 223] (H-Y[Aib]EGT[αMePhe(2-F)]TSD[4Pal]SI[αMeL]LD[Orn]IAQ[Aib]EFI[dE][αMeY]LIK([AEEA-AEEA-C14 diacid])GGPSSGAPPPSK([AEEA-AEEA-C14 diacid])-NH2)
Emax [1, 5]: 115% | Emax [1, 6]: 94% | EC50 [1, 9]: 1.43 nM | EC50 [2, 4]: 7.84 nM | Emax [2, 7]: 79.2% | EC50 [2, 9]: 0.0252 nM | EC50 [3, 4]: > 9950 nM | EC50 [3, 9]: > 9950 nM

CC[C@H](C)[C@H](NC(=O)[C@H](CC(C)C)NC(=O)[C@](C)(Cc1ccc(O)cc1)NC(=O)[C@@H](CCC(=O)O)NC(=O)[C@@H](NC(=O)[C@H](Cc1ccccc1)NC(=O)[C@H](CCC(=O)O)NC(=O)C(C)(C)NC(=O)[C@H](CCC(N)=O)NC(=O)[C@H](C)NC(=O)[C@H](CCCCNC(=O)COCCOCCNC(=O)COCCOCCNC(=O)COCCOCCNC(=O)CC[C@H](NC(=O)CCCCCCCCCCCCC(=O)O)C(=O)O)NC(=O)[C@H](CCCN)NC(=O)[C@H](CC(=O)O)NC(=O)[C@H](CC(C)C)NC(=O)[C@](C)(CC(C)C)NC(=O)[C@@H](NC(=O)[C@H](CO)NC(=O)[C@H](Cc1ccncc1)NC(=O)[C@H](CC(=O)O)NC(=O)[C@H](CO)NC(=O)[C@@H](NC(=O)[C@](C)(Cc1ccccc1F)NC(=O)[C@@H](NC(=O)CNC(=O)[C@H](CCC(=O)O)NC(=O)C(C)(C)NC(=O)[C@@H](N)Cc1ccc(O)cc1)[C@@H](C)O)[C@@H](C)O)[C@@H](C)CC)[C@@H](C)CC)C(=O)N[C@@H](CCCCNC(=O)COCCOCCNC(=O)COCCOCCNC(=O)COCCOCCNC(=O)CC[C@H](NC(=O)CCCCCCCCCCCCC(=O)O)C(=O)O)C(=O)NCC(=O)NCC(=O)N1CCC[C@H]1C(=O)N[C@@H](CO)C(=O)N[C@@H](CO)C(=O)NCC(=O)N[C@@H](C)C(=O)N1CCC[C@H]1C(=O)N1CCC[C@H]1C(=O)N1CCC[C@H]1C(=O)N[C@@H](CO)C(N)=O [Example 224]
Emax [1, 6]: 88.4% | EC50 [1, 9]: 7.51 nM | EC50 [2, 4]: 2.92 nM | Emax [2, 7]: 90.6% | Emax [2, 8]: 109% | EC50 [3, 4]: > 9950 nM | EC50 [3, 9]: > 9950 nM
